Test results reported in paper doi:10.1101/2021.04.08.439011v1 (biorxiv, 2021).
Where two headings read alike, the source gives them in different places.

Columns and labels:
PIM1 = PIM1 (Homo sapiens, UniProt P11309); conditions: 0.1 µM; binder
FLT3 = target: T1, FLT3 (Homo sapiens, UniProt P36888); conditions: 0.1 µM, binder
T1 sequence (P36888 1-993): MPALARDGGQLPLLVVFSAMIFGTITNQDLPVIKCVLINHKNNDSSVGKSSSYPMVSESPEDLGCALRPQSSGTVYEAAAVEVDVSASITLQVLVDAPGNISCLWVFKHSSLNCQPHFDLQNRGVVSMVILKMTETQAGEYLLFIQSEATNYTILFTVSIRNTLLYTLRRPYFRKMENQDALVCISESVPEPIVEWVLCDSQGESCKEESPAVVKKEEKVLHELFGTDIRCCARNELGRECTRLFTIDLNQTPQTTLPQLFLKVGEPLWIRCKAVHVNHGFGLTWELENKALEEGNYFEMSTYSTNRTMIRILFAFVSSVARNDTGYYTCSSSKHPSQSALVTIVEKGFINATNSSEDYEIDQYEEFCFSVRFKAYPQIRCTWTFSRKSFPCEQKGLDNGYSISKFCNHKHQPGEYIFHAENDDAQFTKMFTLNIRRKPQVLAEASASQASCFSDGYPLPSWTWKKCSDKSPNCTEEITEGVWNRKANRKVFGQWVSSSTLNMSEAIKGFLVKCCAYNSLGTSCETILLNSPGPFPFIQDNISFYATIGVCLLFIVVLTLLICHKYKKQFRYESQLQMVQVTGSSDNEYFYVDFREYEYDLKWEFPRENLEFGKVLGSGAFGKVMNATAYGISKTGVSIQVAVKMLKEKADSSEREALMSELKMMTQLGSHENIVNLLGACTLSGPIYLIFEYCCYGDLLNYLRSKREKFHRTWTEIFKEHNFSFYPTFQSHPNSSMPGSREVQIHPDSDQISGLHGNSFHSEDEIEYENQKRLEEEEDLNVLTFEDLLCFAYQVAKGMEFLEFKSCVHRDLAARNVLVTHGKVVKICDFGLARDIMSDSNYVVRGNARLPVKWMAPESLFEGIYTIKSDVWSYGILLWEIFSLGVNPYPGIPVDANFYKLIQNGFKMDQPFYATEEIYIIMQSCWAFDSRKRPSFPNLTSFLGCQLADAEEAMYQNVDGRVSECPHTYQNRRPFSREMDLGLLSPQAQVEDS

EPHA2 = EPHA2 (Homo sapiens, UniProt P29317); conditions: 0.1 µM; binder
FLT3(N841I) = FLT3(N841I) (Homo sapiens, UniProt P36888, N841I); conditions: 0.1 µM; binder
TEC = TEC (Homo sapiens, UniProt P42680); conditions: 0.1 µM; binder
Chain of TEC (P42680 whole entry): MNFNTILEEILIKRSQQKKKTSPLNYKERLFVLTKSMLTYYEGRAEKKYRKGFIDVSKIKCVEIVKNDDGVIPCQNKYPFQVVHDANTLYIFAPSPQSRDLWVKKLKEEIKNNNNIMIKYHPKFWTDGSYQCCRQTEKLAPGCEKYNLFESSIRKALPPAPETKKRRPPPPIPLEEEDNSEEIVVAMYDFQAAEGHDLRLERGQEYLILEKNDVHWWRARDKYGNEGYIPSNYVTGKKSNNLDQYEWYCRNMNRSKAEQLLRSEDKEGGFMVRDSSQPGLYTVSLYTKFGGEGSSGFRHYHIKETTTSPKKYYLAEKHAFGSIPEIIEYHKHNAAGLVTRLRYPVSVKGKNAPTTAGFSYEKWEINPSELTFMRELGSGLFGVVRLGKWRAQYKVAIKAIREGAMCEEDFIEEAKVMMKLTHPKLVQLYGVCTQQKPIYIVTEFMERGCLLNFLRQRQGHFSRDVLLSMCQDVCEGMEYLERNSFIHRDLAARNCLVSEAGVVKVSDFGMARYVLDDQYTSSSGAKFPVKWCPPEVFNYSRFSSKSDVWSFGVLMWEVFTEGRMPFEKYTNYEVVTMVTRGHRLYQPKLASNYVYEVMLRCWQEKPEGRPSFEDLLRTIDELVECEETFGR

EGFR = EGFR (Homo sapiens, UniProt P00533); conditions: 0.1 µM; binder
Chain of EGFR (P00533 whole entry): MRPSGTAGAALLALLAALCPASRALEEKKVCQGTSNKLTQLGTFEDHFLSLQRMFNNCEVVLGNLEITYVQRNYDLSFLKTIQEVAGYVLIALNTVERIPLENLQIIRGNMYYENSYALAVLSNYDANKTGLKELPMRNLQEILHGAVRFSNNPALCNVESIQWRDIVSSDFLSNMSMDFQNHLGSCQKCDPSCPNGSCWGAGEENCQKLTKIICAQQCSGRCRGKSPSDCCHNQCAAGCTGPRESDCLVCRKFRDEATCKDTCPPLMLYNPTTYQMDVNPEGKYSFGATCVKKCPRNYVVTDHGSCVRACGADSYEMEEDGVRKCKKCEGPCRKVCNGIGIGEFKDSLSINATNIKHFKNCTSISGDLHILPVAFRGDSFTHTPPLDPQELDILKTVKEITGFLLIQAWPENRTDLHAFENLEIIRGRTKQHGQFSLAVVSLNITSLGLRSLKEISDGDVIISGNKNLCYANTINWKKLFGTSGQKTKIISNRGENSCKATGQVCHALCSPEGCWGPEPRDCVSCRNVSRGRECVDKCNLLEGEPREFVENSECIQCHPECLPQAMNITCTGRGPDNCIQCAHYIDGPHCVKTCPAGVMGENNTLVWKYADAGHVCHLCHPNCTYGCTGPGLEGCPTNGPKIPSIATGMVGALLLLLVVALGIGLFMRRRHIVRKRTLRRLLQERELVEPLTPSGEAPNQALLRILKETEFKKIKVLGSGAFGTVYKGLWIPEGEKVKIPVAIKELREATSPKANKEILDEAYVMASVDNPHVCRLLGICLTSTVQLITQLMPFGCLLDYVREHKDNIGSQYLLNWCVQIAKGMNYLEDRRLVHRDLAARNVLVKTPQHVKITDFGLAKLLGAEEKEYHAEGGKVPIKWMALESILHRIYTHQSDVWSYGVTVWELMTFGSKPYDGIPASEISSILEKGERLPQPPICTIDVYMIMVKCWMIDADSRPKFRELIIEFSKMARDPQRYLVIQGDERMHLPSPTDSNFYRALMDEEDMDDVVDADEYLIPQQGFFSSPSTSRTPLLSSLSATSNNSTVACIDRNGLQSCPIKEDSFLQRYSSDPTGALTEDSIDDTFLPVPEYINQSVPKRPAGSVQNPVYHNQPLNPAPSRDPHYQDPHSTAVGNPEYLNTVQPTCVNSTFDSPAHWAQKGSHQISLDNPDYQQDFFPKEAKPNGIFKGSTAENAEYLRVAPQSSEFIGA

CDKL2 = CDKL2 (Homo sapiens, UniProt Q92772); conditions: 0.1 µM; binder
MKNK2 = MKNK2 (Homo sapiens, UniProt Q9HBH9); conditions: 0.1 µM; binder
FLT3(D835H) = FLT3(D835H) (Homo sapiens, UniProt P36888, D835H); conditions: 0.1 µM; binder
PIK3CA(Q546K) = PIK3CA(Q546K) (Homo sapiens, UniProt P42336, Q546K); conditions: 0.1 µM; binder
AURKA = AURKA (Homo sapiens, UniProt O14965); conditions: 0.1 µM; binder
Chain of AURKA (O14965 whole entry): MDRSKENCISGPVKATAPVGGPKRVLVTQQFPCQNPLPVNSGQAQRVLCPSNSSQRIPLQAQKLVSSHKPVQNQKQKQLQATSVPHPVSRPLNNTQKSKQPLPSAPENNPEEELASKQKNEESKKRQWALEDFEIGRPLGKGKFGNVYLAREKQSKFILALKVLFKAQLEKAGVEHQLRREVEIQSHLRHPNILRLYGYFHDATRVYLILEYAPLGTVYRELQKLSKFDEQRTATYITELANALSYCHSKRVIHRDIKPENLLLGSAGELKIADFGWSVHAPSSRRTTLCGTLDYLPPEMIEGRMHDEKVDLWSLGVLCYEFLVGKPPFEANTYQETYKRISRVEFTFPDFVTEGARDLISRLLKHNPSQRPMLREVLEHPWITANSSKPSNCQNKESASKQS

TSSK3 = TSSK3 (Homo sapiens, UniProt Q96PN8); conditions: 0.1 µM; binder
BUB1 = BUB1 (Homo sapiens, UniProt O43683); conditions: 0.1 µM; binder
Chain of BUB1 (O43683 whole entry): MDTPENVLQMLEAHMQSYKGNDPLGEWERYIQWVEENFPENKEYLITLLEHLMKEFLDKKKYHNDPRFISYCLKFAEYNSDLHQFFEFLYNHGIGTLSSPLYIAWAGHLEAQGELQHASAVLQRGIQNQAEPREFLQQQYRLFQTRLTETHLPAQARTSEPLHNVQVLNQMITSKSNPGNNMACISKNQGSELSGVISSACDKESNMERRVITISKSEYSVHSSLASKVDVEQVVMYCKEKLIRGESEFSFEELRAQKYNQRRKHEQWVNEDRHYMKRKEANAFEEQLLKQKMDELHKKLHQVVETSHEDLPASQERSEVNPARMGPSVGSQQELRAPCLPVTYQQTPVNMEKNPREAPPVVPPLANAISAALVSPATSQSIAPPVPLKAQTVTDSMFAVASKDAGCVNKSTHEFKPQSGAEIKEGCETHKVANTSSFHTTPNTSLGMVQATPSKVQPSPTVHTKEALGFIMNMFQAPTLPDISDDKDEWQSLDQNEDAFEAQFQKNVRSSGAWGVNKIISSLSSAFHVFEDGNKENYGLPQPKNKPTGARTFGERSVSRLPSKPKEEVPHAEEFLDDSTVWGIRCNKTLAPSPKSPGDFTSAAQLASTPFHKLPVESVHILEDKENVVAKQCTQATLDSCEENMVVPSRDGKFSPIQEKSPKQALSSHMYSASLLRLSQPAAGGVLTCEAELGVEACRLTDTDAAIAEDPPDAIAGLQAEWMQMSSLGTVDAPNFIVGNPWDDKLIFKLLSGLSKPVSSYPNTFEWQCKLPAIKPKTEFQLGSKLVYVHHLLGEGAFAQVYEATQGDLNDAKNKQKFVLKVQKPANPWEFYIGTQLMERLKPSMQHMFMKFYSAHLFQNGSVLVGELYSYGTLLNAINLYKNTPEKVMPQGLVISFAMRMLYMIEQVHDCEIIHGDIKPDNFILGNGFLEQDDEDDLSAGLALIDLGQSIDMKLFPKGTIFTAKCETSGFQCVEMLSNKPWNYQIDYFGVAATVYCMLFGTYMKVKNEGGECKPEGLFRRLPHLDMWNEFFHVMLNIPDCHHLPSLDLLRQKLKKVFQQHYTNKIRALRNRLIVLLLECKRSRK

BRSK2 = BRSK2 (Homo sapiens, UniProt Q8IWQ3); conditions: 0.1 µM; binder
JNK2 = JNK2 (Homo sapiens, UniProt P45984); conditions: 0.1 µM; binder
Chain of JNK2 (P45984 whole entry): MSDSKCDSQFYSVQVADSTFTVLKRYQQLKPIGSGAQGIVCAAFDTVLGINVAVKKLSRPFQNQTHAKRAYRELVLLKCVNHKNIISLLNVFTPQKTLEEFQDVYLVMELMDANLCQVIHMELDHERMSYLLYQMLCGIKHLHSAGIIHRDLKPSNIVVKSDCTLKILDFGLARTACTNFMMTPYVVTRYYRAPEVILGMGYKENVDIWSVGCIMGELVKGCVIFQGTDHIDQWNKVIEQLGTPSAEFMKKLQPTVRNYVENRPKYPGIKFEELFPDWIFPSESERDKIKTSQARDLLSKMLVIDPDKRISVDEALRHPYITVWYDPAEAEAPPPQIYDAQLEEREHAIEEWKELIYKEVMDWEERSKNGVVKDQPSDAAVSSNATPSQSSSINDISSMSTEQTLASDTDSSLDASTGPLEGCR

DDR1 = DDR1 (Homo sapiens, UniProt Q08345); conditions: 0.1 µM; binder
Chain of DDR1 (Q08345 whole entry): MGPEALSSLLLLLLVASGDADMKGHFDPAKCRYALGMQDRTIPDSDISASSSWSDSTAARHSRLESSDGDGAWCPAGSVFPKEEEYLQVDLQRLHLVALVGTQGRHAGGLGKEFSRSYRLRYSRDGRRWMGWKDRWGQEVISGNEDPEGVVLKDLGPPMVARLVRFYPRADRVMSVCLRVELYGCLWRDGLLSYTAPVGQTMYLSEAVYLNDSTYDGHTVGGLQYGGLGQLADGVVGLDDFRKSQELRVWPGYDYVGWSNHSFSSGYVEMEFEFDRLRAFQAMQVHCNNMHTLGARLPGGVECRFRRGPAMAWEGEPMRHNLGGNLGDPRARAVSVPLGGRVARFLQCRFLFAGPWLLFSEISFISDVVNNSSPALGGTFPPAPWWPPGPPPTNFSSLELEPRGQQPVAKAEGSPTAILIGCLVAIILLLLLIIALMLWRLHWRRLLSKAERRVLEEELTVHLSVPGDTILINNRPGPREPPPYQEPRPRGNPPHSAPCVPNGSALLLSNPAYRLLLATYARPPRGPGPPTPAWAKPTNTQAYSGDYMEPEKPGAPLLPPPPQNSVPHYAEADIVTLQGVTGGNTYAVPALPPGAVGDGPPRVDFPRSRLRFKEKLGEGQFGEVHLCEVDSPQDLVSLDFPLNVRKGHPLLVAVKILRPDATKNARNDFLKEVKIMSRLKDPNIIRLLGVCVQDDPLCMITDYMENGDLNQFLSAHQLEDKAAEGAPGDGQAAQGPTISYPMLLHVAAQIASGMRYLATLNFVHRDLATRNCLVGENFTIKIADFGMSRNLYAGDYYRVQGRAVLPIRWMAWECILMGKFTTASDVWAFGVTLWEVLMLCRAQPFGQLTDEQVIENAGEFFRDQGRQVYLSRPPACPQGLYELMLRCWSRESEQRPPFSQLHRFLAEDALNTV

ABL1(Y253F) = ABL1(Y253F) (Homo sapiens, UniProt P00519, Y253F); conditions: phosphorylated; 0.1 µM; binder
S6K1 = S6K1 (Homo sapiens, UniProt P23443); conditions: 0.1 µM; binder
CSNK1G3 = CSNK1G3 (Homo sapiens, UniProt Q9Y6M4); conditions: 0.1 µM; binder
p38-gamma = p38-gamma (Homo sapiens, UniProt P53778); conditions: 0.1 µM; binder
TGFBR2 = TGFBR2 (Homo sapiens, UniProt P37173); conditions: 0.1 µM; binder

Measured: Percent Control

Chain of PIM1 (P11309 whole entry): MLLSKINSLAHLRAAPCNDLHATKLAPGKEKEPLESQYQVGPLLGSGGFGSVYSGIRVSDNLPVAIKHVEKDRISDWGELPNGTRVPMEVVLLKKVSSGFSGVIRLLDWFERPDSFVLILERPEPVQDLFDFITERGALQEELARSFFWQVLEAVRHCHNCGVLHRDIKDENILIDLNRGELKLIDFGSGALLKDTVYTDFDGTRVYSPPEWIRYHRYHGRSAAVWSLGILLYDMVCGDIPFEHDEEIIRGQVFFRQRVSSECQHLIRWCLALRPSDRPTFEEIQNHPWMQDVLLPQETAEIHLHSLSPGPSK

CNc1ncc2cc(-c3ccc(-c4cccc(C)n4)cc3Cl)c(=O)n(C[C@H]3OC[C@H](N)CO3)c2n1 [compound 6, G-5555]
100%: PIM1 | FLT3 | EPHA2 | FLT3(N841I) | TEC | EGFR | CDKL2 | MKNK2 | TSSK3 | BUB1 | BRSK2 | JNK2 | DDR1 | CSNK1G3 | p38-gamma | TGFBR2
85%: PIK3CA(Q546K)
97%: ABL1(Y253F)
98%: AURKA
89%: FLT3(D835H)
92%: S6K1
94%: FLT3; autoinhibited
